Laboratory results reported in PMC10051560, “Identification and Functional Characterization of General Odorant Binding Proteins in Orthaga achatina” (Insects, 2023).
Like-named read-outs stand apart in the source and are kept apart here.

Assays:
[1] = target: OachGOBP1; test: Fluorescence competitive binding assay (1-NPN displacement), OachGOBP1; set-up: species or system Orthaga achatina; settings: 2 µM protein and 2 µM 1-NPN in 50 mM Tris HCl; for Ki: Ki = [IC50]/(1 + [1-NPN]/K1-NPN), read-out: GOBP1 Ki; for IC50: competitive ligand replacing 50% 1-NPN, read-out: GOBP1 IC50
Description: (§1) A fluorescence competition binding assay was used to test the binding properties of GOBPs to 22 plant volatiles of camphor [22, 23] and 4 sex pheromones of O. achatina. The fluorescence competitive binding assay was conducted on an F-7000 fluorescence spectrophotometer with a 1 cm light path quartz cuvette and 10 nm slits for excitation and emission. The excitation wavelength was 337 nm, and the emission spectrum was recorded between 380 and 460 nm. Firstly, the binding characteristics of 1-NPN to protein were detected. We dissolved 2 µM protein in 50 mM Tris HCl (pH = 7.4), then gradually added 1 mM 1-NPN to make its concentration reach 2, 4, 6, 8, 10, 12, 14, 16 and 20 µM, recorded the fluorescence value, and then calculated the binding constant between 1-NPN and the recombinant protein using the Scatchard equation.
When studying the binding constant between odorant and recombinant protein, 1-NPN was used as a fluorescence reporter. We dissolved 2 µM protein and 2 µM 1-NPN in 50 mM Tris HCl, and then gradually added the ligand. […] In order to determine the binding concentration of protein, the free radical concentration was plotted with the fluorescence intensity of the maximum emission spectrum. It was assumed that the protein activity was 100% and the binding ratio of protein to ligand was 1:1 in the saturated state. The curve was linearized by the Scatchard method. […] The calculation formula was: Ki = [IC50]/(1 + [1-NPN]/K1-NPN), where [1-NPN] is the concentration of unbound 1-NPN and K1-NPN is the dissociation concentration of protein/1-NPN complex.

[2] = target: T1, OachGOBP2 (Orthaga achatina, UniProt H6UEU3); test: Fluorescence competitive binding assay (1-NPN displacement), OachGOBP2; settings: for Ki: Ki = [IC50]/(1 + [1-NPN]/K1-NPN), read-out: GOBP2 Ki; for binding to GOBP2 (in words): fluorescence competitive binding
T1 sequence (H6UEU3 entry or part of it): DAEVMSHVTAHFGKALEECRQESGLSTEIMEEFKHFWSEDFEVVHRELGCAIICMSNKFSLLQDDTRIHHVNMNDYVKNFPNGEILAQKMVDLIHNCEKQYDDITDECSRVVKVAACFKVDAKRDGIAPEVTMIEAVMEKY
Description: as §1
When studying the binding constant between odorant and recombinant protein, 1-NPN was used as a fluorescence reporter. We dissolved 2 µM protein and 2 µM 1-NPN in 50 mM Tris HCl, and then gradually added the ligand. All the ligands were diluted in methanol (AR, content greater than 99.5%). The concentration of pheromone component was 0.5–10 µM and the concentration of plant volatile was 1–32 µM. In order to determine the binding concentration of protein, the free radical concentration was plotted with the fluorescence intensity of the maximum emission spectrum. It was assumed that the protein activity was 100% and the binding ratio of protein to ligand was 1:1 in the saturated state. The curve was linearized by the Scatchard method. Then, the concentration of competitive binding ligand was calculated according to the IC50 value (the concentration when competitive ligand can replace 50% 1-NPN). The calculation formula was: Ki = [IC50]/(1 + [1-NPN]/K1-NPN), where [1-NPN] is the concentration of unbound 1-NPN and K1-NPN is the dissociation concentration of protein/1-NPN complex.

[3] = target: T1, OachGOBP2; test: Binding of fluorescent probe 1-NPN to OachGOBP2 (Scatchard); settings: 2 µM protein in 50 mM Tris HCl pH 7.4, Scatchard; read-out: dissociation constant (K1-NPN) to OachGOBP2
Description: as §1

[4] = target: OachGOBP1; test: Binding of fluorescent probe 1-NPN to OachGOBP1 (Scatchard); set-up: species or system Orthaga achatina; settings: 2 µM protein in 50 mM Tris HCl pH 7.4, Scatchard; read-out: dissociation constant (K1-NPN) to OachGOBP1
Description: as §1

[5] = 2 µM protein and 2 µM 1-NPN in 50 mM Tris HCl
[6] = competitive ligand replacing 50% 1-NPN, 2 µM protein and 2 µM 1-NPN in 50 mM Tris HCl, read-out: GOBP2 IC50

Structure (SMILES) | Ki [1] [µM] | IC50 [1] [µM] | Ki [2, 5] [µM] | IC50 [2, 6] [µM] | Kd [3] [µM] | Kd [4] [µM] | binding to GOBP2 (in words) [2] | IC50 [2] [µM] | binding capacity class to OachGOBP2 (sex pheromones) ([2]; class by Ki, sex pheromones)
CCCCCCO [1-Hexanol] | > 30 | > 32 | > 30 | > 32 |  |  |  |  | 
c1ccc(Nc2cccc3ccccc23)cc1 [1-NPN] |  |  |  |  | 4.91 | 9.95 |  |  | 
C=C1C2CCC(C2)C1(C)C (stereo not shown) [Camphene] | > 30 | > 32 | > 30 | > 32 |  |  | did not bind |  | 
CC12CCC(CC1=O)C2(C)C (stereo not shown) [Camphor] | > 30 | > 32 | 17.5 | 20.7 |  |  |  |  | 
O=C/C=C/c1ccccc1 [Cinnamaldehyde] | > 30 | > 32 |  |  |  |  |  | > 32 | 
CCC/C=C/C=O [E2-Hexenal] | > 30 | > 32 | > 30 | > 32 |  |  |  |  | 
CC12CCC(CC1)C(C)(C)O2 [Eucalyptol] | > 30 | > 32 | > 30 | > 32 |  |  |  |  | 
CC(C)=CCC/C(C)=C/CC/C(C)=C/CO [Farnesol] | 9.49 | 10.9 | 7.33 | 8.68 |  |  |  |  | 
CC(C)=CCC/C(C)=C/CO [Geraniol] | > 30 | > 32 |  |  |  |  |  | > 32 | 
O=CCCCC=O [Glutaraldehyde] | > 30 | > 32 |  |  |  |  |  | > 32 | 
CCCCCCOC(C)=O [Hexyl acetate] | > 30 | > 32 | > 30 | > 32 |  |  |  |  | 
C=C(C)[C@H]1CC=C(C)CC1 [Limonene] | > 30 | > 32 | > 30 | > 32 |  |  |  |  | 
C=CC(C)(O)CCC=C(C)C (stereo not shown) [Linalool] | > 30 | > 32 |  |  |  |  |  | 13.9 | 
C=CC(C)=CCC=C(C)C [Ocimene] | > 30 | > 32 | > 30 | > 32 |  |  |  |  | 
CC/C=C\C/C=C\C/C=C\C/C=C\C/C=C\CCCCCCC [Z3, Z6, Z9,Z12,Z15–23: H] | > 30 | > 32 | > 30 | > 32 |  |  |  |  | 
CC/C=C\CCO [Z3-Hexen-1-ol] | > 30 | > 32 | 18.2 | 21.4 |  |  |  |  | 
CC/C=C\CC=O [Z3-Hexenal] | > 30 | > 32 | > 30 | > 32 |  |  | did not bind |  | 
CC/C=C\CCOC(C)=O [Z3-Hexenyl acetate] | > 30 | > 32 | 14.3 | 16.8 |  |  |  |  | 
CCCC/C=C\CCCCCCCCCC=O [Z11-16: Ald] | > 30 | > 32 |  | > 32 |  |  |  |  | 
CCCC/C=C\CCCCCCCCCCOC(C)=O [Z11-16: OAc] | > 30 | > 32 | 2.84 | 3.3 |  |  |  |  | moderate (2 μM < Ki < 5 μM indicates moderate binding affinity)
CCCC/C=C\CCCCCCCCCCO [Z11-16: OH] | 1.57 | 1.79 | 3.3 | 3.86 |  |  |  |  | 
C=C/C(C)=C/C/C=C(\C)CCC=C(C)C [α-Farnesene] | > 30 | > 32 | 13.4 | 15.9 |  |  |  |  | 
CC(=O)/C=C/C1C(C)=CCCC1(C)C (stereo not drawn) [α-Ionone] | > 30 | > 32 |  |  |  |  |  | > 32 | 
CC1=CC[C@H](C(C)C)C=C1 [α-Phellandrene] | > 30 | > 32 |  |  |  |  |  | 10.2 | 
C=CC(=C)CC/C=C(\C)CCC=C(C)C [β-Farnesene] | > 30 | > 32 | > 30 | > 32 |  |  |  |  | 
CC(=O)/C=C/C1=C(C)CCCC1(C)C [β-Ionone] | > 30 | > 32 |  |  |  |  |  | 17.8 | 
C=C1CCC2CC1C2(C)C (stereo not drawn) [β-Pinene] | > 30 | > 32 |  |  |  |  |  | > 32 | 
